In patent publication US11466020B2, “Compounds and compositions for inhibition and elimination of Zika infection and uses for same” (Cornell University, priority 2017, dated 2022):
Counter-ions that a name gives are not always drawn.

Tests used:
[1] = test system: ZIKV MR766; assay: Inhibition of ZIKV infection of hNPCs (high content screen / inhibitory curve, ZIKV E staining); format: cell-based, Zika virus; conditions: for ZIKV infection of hNPCs compared to DMSO controls: 72 h after ZIKV (MR766) infection; for IC50: Zika virus, hNPCs, ZIKV MR766 MOI=0.125, compound added before infection, infection rate (ZIKV E+ cells), read-out: IC50 values of anti-ZIKV activity
Description: A high content chemical screen identifies compounds that inhibit ZIKV infection of hNPCs. To identify drugs that inhibit ZIKV infection, we screened the Prestwick library that includes 1120 FDA-approved drug and drug candidates, selected for known bioavailability and safety in humans. To perform the screen, hNPCs seeded in 384-well plates were treated with each compound from the library or vehicle control (DMSO) for 1 hour, followed by addition of ZIKV MR766 at a MOI=0.125. After two hour of inoculation with ZIKV, the virus-containing medium was replaced by fresh virus-free medium and compounds were replenished for each well (See Methods). After an additional three days of culture, cells were fixed and stained with antibodies against the ZIKV envelop protein (ZIKV E) and a cell proliferation marker Ki67 (FIG. 1A). The percentages of ZIKV E^+ cells, Ki67^+ cells and total cell number were quantified by an automated imaging and analysis system. A two dimensional analysis was performed to choose the primary hit compounds (FIG. 5A). The X-axis represents the fold change of total cell number, which was calculated by dividing the total cell number of the chemical-treated well by the average total cell number of DMSO-treated wells. The Y-axis represents the fold change of the percentage of ZIKV infected cells, which was calculated by dividing the percentage of cells expressing ZIKV E in each chemical-treated well by the average of the percentage of cells expressing ZIKV E from DMSO-treated wells. […] Based on the fold change of the percentage of ZIKV infection, the signal-to-basal (S/B) ratio is 4.2 and the coefficient of variation (CV) is 6.9%. The Z factor is 0.59 indicating a robust screening system.
hNPCs were plated on 96-well plates at 8.5×10^4/cm^2. After overnight incubation, hNPCs were infected with ZIKV (MR766 strain, MOI=0.125) for 2 h, and changed to virus-free medium. The cells were maintained in NPC medium with daily medium change. Three days later, the supernatant and cells were collected and used for assays. hESC-derived forebrain organoids were infected with ZIKV MR766 (5×10^5 PFU/ml) for 24 h. After removal of virus containing medium, forebrain organoids were maintained in forebrain organoid medium for an additional 3 or 17 days and then used for assays.
High-content Screen. hNPCs were dissociated and plated on Matrigel-coated 384-well plates for the chemical screen. […] DMSO was used as a negative control. ZIKV MR766 was added at MOI=0.125. After 2 hour infection, the supernatant was replaced with fresh medium and compounds from the same chemical library were added to the same wells. After an additional 3 days incubation, cells were fixed, stained with antibodies against ZIKV envelop protein (ZIKV E) and proliferation marker Ki67, and analyzed with the ImageXpress^MICRO Automated High-Content Analysis System. […] X-axis represents the fold change of total cell number, which was calculated by dividing the total cell number of the chemical treated well by the average of total cell number of DMSO treated wells. Y-axis represents the fold change of the percentage of ZIKV infection, which was calculated by dividing the percentage of ZIKV infection of the chemical treated well by the average of the percentage of ZIKV infection of DMSO treated wells. The compounds in which the fold change of total cell number >1 and the fold change of the percentage of ZIKV infection <20% were further evaluated. […]

[2] = test system: ZIKV (PRVABC59 strain); assay: ZIKV PRVABC59 infection of hNPCs (immunocytochemistry); format: cell-based, Zika virus; conditions: MOI=0.125, 72 h
Description: (A) Scheme of high content chemical screen. (B) Chemical structure of hit compounds. (C) Inhibitory curve and IC50 of HH or AQ on hNPCs (n=6). (D-H) Immunocytochemistry analysis (D), the quantification of the infection rate (E), the quantification of proliferation rate (F), the quantification of cell apoptosis rate (G) and the normalized cell viability (H) of hNPCs at 72 h after ZIKV (MR 766 strain) infection with or without drug treatment. Scale bars, 100 μm. The ZIKV infection rate is defined as the percentage of ZIKV E^+ cells. The proliferation rate is defined as the percentages of Ki67^+ cells. The cell apoptosis rate was defined as the percentage of cleaved-Caspase 3/CAS3^+ cells. The normalized cell viability was calculated by dividing the total cell number of each condition by the total cell number under mock infection conditions. (n=6). […] (K) Quantification of ZIKV infectious particles produced by ZIKV-infected hNPCs with or without compound treatment by the Vero cell reinfection assay. […] (M and N) Immunocytochemistry analysis (M) and quantification of the infection rate (N) of hNPCs at 72 h after ZIKV (PRVABC59 strain) infection with or without drug treatment (n=6). Scale bars, 100 μm. p values were calculated by one-way repeated measures ANOVA with a Bonferroni test for multiple comparisons. *p<0.05, **p<0.01 and ***p<0.001. […]

[3] = test system: transcriptional changes induced by ZIKV (MR766 strain) infection; assay: RNA-seq analysis of ZIKV infected hNPCs; format: cell-based, human; conditions: 72 h post-inoculation, 25 μM HH or 15 μM AQ

| Structure (SMILES) | ZIKV infection of hNPCs compared to DMSO controls [1] | IC50 [1] | ZIKV (PRVABC59) infection of hNPCs ([2]; 15 μM AQ) | transcriptional changes induced by ZIKV infection (RNA-seq) [3] | ZIKV (PRVABC59) infection of hNPCs ([2]; 25 μM HH) |
| --- | --- | --- | --- | --- | --- |
| CCN(CC)Cc1cc(Nc2ccnc3cc(Cl)ccc23)ccc1O [AQ, amodiaquine dihydrochloride dihydrate] | effectively inhibited ZIKV infection | 6 µM | effectively inhibited ZIKV infection | reversed the transcriptional changes |  |
| CN1CCC2=C[C@H](O)[C@H]3OC(=O)c4cc5c(cc4[C@H]3[C@@H]21)OCO5 [HH, hippeastrine hydrobromide] | effectively inhibited ZIKV infection | 5.5 µM |  | reversed the transcriptional changes | effectively inhibited ZIKV infection |
